From US9555022B2, “Substituted triazolopyridines” (Bayer Intellectual Property GmbH, priority 2010, dated 2017) come the findings set out here.

Structures can show the parent of a compound that is named as a salt.

Chain of human full length recombinant Mps-1 kinase (P33981 whole entry): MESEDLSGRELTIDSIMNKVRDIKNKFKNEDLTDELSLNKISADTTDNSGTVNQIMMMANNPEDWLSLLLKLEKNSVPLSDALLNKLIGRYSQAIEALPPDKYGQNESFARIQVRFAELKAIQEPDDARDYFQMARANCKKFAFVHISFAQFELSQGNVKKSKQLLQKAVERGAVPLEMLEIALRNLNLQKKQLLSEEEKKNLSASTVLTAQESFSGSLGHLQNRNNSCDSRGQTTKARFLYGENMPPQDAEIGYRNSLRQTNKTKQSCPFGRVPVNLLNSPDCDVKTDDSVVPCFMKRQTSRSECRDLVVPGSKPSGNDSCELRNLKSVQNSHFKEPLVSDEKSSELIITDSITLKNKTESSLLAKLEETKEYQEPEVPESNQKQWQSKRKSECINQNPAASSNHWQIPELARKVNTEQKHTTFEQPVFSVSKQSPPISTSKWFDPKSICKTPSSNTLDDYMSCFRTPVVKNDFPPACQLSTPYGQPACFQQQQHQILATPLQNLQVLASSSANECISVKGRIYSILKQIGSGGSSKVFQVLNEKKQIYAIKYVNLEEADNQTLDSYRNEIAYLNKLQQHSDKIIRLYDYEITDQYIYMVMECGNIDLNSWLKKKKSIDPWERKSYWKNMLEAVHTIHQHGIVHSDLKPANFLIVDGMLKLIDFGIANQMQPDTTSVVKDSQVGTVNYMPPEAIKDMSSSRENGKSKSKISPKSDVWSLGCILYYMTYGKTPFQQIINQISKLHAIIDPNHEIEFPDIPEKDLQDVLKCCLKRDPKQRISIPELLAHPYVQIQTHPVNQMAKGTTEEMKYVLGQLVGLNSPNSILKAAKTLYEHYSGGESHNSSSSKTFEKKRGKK

This assay deals with human full length recombinant Mps-1 kinase (Homo sapiens (Human), UniProt P33981). The assay is described as follows: Mps-1 Kinase Assay (TR-FRET). It is filed as biochemical. The following applies: 10 μM ATP, 1 μM biotinylated peptide substrate, 60 min at 22° C., read-out: Mps-1 Inhibition, IC50 in M. On the procedure:
The human kinase Mps-1 phosphorylates a biotinylated substrate peptide. Detection of the phosphorylated product is achieved by time-resolved fluorescence resonance energy transfer (TR-FRET) from Europium-labelled anti-phospho-Serine/Threonine antibody as donor to streptavidin labelled with cross-linked allophycocyanin (SA-XLent) as acceptor. Compounds are tested for their inhibition of the kinase activity.
N-terminally GST-tagged human full length recombinant Mps-1 kinase (purchased from Invitrogen, Karslruhe, Germany, cat. no PV4071) was used. As substrate for the kinase reaction a biotinylated peptide of the amino-acid sequence […] (C-terminus in amide form, purchased from Biosynthan GmbH, Berlin) was used.
The concentration of Mps-1 in the assay was adjusted to the activity of the enzyme lot and was chosen appropriate to have the assay in the linear range, typical enzyme concentrations were in the range of about 1 nM (final conc. in the 5 μl assay volume).
The resulting mixture was incubated 1 h at 22° C. to allow the binding of the phosphorylated peptide to the anti-phospho(Ser/Thr)-Europium-antibody. Subsequently the amount of phosphorylated substrate was evaluated by measurement of the resonance energy transfer from the Europium-labelled anti-phospho(Ser/Thr) antibody to the Streptavidin-XLent.
As for `COc1cc(N2CCN(C)CC2)ccc1Nc1nc2ccc(-c3ccc(NC(=O)Cc4ccc(F)cc4)cc3)cn2n1` [Example 02.28, 2-(4-fluorophenyl)-N-[4-(2-{[2-methoxy-4-(4-methylpiperazin-1-yl)phenyl]amino}[,2]-triazolo[1,5-a]pyridin-6-yl)phenyl]acetamide], the IC50 (in general, the concentration needed to halve the response being measured) is at most 1 nM. To `O=C(Cc1ccc(F)cc1)Nc1ccc(-c2ccc3nc(Nc4ccc(C(=O)N5CC6(COC6)C5)cc4OCCF)nn3c2)cc1` [Example 02.30, N-[4-(2-{[2-(2-fluoroethoxy)-4-(2-oxa-6-azaspiro[3.3]hept-6-ylcarbonyl)phenyl]amino}[,2]triazolo[1,5-a]pyridin-6-yl)phenyl]-2-(4-fluorophenyl)acetamide] belongs at most 1 nM.

With `O=C(Cc1ccc(F)cc1)Nc1ccc(-c2ccc3nc(Nc4ccc(C(=O)N5CCOCC5)cc4OCC(F)F)nn3c2)cc1` [Example 02.31, N-[4-(2-{[2-(2,2-difluoroethoxy)-4-(morpholin-4-ylcarbonyl)phenyl]amino}[,2]-triazolo[1,5-a]pyridin-6-yl)phenyl]-2-(4-fluorophenyl)acetamide], the IC50 was at most 1 nM. To `O=C(Cc1ccc(F)cc1)Nc1ccc(-c2ccc3nc(Nc4ccc(C(=O)N5CCOCC5)cc4C(F)(F)F)nn3c2)cc1` [Example 02.32, 2-(4-fluorophenyl)-N-[4-(2-{[4-(morpholin-4-ylcarbonyl)-2-(trifluoromethyl)phenyl]amino}[,2]-triazolo[1,5-a]pyridin-6-yl)phenyl]acetamide] belongs at most 1 nM; to `COc1cc(CN2CCOCC2)ccc1Nc1nc2ccc(-c3ccc(NC(=O)Cc4ccc(F)cc4)cc3)cn2n1` [Example 02.33, 2-(4-fluorophenyl)-N-[4-(2-{[2-methoxy-4-(morpholin-4-ylmethyl)phenyl]amino}[,2]-triazolo[1,5-a]pyridin-6-yl)phenyl]acetamide], at most 1 nM; to `CCOc1cc(OC2CCN(C)CC2)ccc1Nc1nc2ccc(-c3ccc(NC(=O)Cc4ccc(F)cc4)cc3)cn2n1` [Example 02.34, N-{4-[2-({2-ethoxy-4-[(1-methylpiperidin-4-yl)oxy]phenyl}amino)[,2]triazolo[1,5-a]pyridin-6-yl]phenyl}-2-(4-fluorophenyl)acetamide], at most 1 nM.

Take `COc1cc(OC2CCN(C)CC2)ccc1Nc1nc2ccc(-c3ccc(NC(=O)Cc4ccc(F)cc4)cc3)cn2n1` [Example 02.35, 2-(4-fluorophenyl)-N-{4-[2-({2-methoxy-4-[(1-methylpiperidin-4-yl)oxy]phenyl}amino)[,2]triazolo[1,5-a]pyridin-6-yl]phenyl}acetamide]: the IC50 was at most 1 nM. To `CSc1cc(OC2CCN(C)CC2)ccc1Nc1nc2ccc(-c3ccc(NC(=O)Cc4ccc(F)cc4)cc3)cn2n1` [Example 02.36, 2-(4-fluorophenyl)-N-{4-[2-({4-[(1-methylpiperidin-4-yl)oxy]-2-(methylsulfanyl)phenyl}amino)[,2]triazolo[1,5-a]pyridin-6-yl]phenyl}acetamide] belongs at most 1 nM; to `COc1cc(S(=O)(=O)N2CCOCC2)ccc1Nc1nc2ccc(-c3ccc(NC(=O)Cc4ccc(F)cc4)cc3)cn2n1` [Example 02.37, 2-(4-fluorophenyl)-N-[4-(2-{[2-methoxy-4-(morpholin-4-ylsulfonyl)phenyl]amino}[,2]-triazolo[1,5-a]pyridin-6-yl)phenyl]acetamide], at most 1 nM. To `Cc1cc(C(=O)N2CC3(COC3)C2)ccc1Nc1nc2ccc(-c3ccc(NC(=O)Cc4ccc(F)cc4)cc3)cn2n1` [Example 02.38, 2-(4-fluorophenyl)-N-[4-(2-{[2-methyl-4-(2-oxa-6-azaspiro[3.3]hept-6-ylcarbonyl)phenyl]amino}[,2]triazolo[1,5-a]pyridin-6-yl)phenyl]acetamide] belongs at most 1 nM; to `Cc1cc(C(=O)N2CCOCC2)ccc1Nc1nc2ccc(-c3ccc(NC(=O)Cc4ccc(F)cc4)cc3)cn2n1` [Example 02.39, 2-(4-fluorophenyl)-N-[4-(2-{[2-methyl-4-(morpholin-4-ylcarbonyl)phenyl]amino}[,2]-triazolo[1,5-a]pyridin-6-yl)phenyl]acetamide], at most 1 nM; to `O=C(Cc1ccc(F)cc1)Nc1ccc(-c2ccc3nc(Nc4ccc(C(=O)N5CC6(COC6)C5)cc4OC(F)(F)F)nn3c2)cc1` [Example 02.40, 2-(4-fluorophenyl)-N-[4-(2-{[4-(2-oxa-6-azaspiro[3.3]hept-6-ylcarbonyl)-2-(trifluoromethoxy)phenyl]amino}[,2]triazolo[1,5-a]pyridin-6-yl)phenyl]acetamide], at most 1 nM.

In the case of `COc1ccc(C(=O)N2CCOCC2)cc1Nc1nc2ccc(-c3ccc(NC(=O)Cc4ccc(F)cc4)cc3)cn2n1` [Example 02.41, 2-(4-fluorophenyl)-N-[4-(2-{[2-methoxy-5-(morpholin-4-ylcarbonyl)phenyl]amino}[,2]-triazolo[1,5-a]pyridin-6-yl)phenyl]acetamide], the IC50 was at most 1 nM. Consider `Cc1nc(N2CCOCC2)ccc1Nc1nc2ccc(-c3ccc(NC(=O)Cc4ccc(F)cc4)cc3)cn2n1` [Example 02.42, 2-(4-fluorophenyl)-N-[4-(2-{[2-methyl-6-(morpholin-4-yl)pyridin-3-yl]amino}[,2]-triazolo[1,5-a]pyridin-6-yl)phenyl]acetamide], for which the IC50 was at most 1 nM. To `Cc1nc(N2CCCC2)ccc1Nc1nc2ccc(-c3ccc(NC(=O)Cc4ccc(F)cc4)cc3)cn2n1` [Example 02.43, 2-(4-fluorophenyl)-N-[4-(2-{[2-methyl-6-(pyrrolidin-1-yl)pyridin-3-yl]amino}[,2]-triazolo[1,5-a]pyridin-6-yl)phenyl]acetamide] belongs at most 1 nM; to `COc1cc(C(=O)N2CCOCC2)ccc1Nc1nc2ccc(-c3ccc(C(=O)NCC4CC4)cc3)cn2n1` [Example 03.01, N-(cyclopropylmethyl)-4-(2-{[2-methoxy-4-(morpholin-4-ylcarbonyl)phenyl]amino}[,2]-triazolo[1,5-a]pyridin-6-yl)benzamide], 2.71 nM.

Turning to `CCOc1cc(C(=O)N2CCOCC2)ccc1Nc1nc2ccc(-c3ccc(C(=O)NCC4CC4)cc3)cn2n1` [Example 03.02, N-(cyclopropylmethyl)-4-(2-{[2-ethoxy-4-(morpholin-4-ylcarbonyl)phenyl]amino}[,2]-triazolo[1,5-a]pyridin-6-yl)benzamide], the IC50 was at most 1 nM. To `COc1cc(C2=NC(C)(C)CO2)ccc1Nc1nc2ccc(-c3ccc(C(=O)NCC4CC4)cc3)cn2n1` [Example 03.03, N-(cyclopropylmethyl)-4-(2-{[4-(4,4-dimethyl-4,5-dihydro-1,3-oxazol-2-yl)-2-methoxyphenyl]amino}[,2]-triazolo[1,5-a]pyridin-6-yl)benzamide] belongs 5.51 nM; to `CCOc1cc(C(=O)NC2CCN(C)CC2)ccc1Nc1nc2ccc(-c3ccc(C(=O)NCC4CC4)cc3)cn2n1` [Example 03.04, 4-[(6-{4-[(cyclopropylmethyl)carbamoyl]phenyl}[,2]triazolo[1,5-a]pyridin-2-yl)amino]-3-ethoxy-N-(1-methylpiperidin-4-yl)benzamide], at most 1 nM; to `COc1cc(N2CCN(C)CC2)ccc1Nc1nc2ccc(-c3ccc(C(=O)NCC4CC4)cc3)cn2n1` [Example 03.05, N-(cyclopropylmethyl)-4-(2-{[2-methoxy-4-(4-methylpiperazin-1-yl)phenyl]amino}[,2]-triazolo[1,5-a]pyridin-6-yl)benzamide trifluoroacetate], 6.33 nM. To `O=C(NCC1CC1)c1ccc(-c2ccc3nc(Nc4ccc(C(=O)N5CCOCC5)cc4OCC(F)(F)F)nn3c2)cc1` [Example 03.06, N-(cyclopropylmethyl)-4-(2-{[4-(morpholin-4-ylcarbonyl)-2-(2,2,2-trifluoroethoxy)phenyl]amino}[,2]-triazolo[1,5-a]pyridin-6-yl)benzamide] belongs at most 1 nM; to `COc1cc(C(=O)N2CC3(COC3)C2)ccc1Nc1nc2ccc(-c3ccc(C(=O)NCC4CC4)cc3)cn2n1` [Example 03.07, N-(cyclopropylmethyl)-4-(2-{[2-methoxy-4-(2-oxa-6-azaspiro[3.3]hept-6-ylcarbonyl)phenyl]amino}[,2]triazolo[1,5-a]pyridin-6-yl)benzamide], at most 1 nM; to `COc1cc(C(=O)N2CCOCC2)ccc1Nc1nc2ccc(-c3ccc(C(=O)NCc4ccc(F)cc4)cc3)cn2n1` [Example 04.01, N-(4-Fluorbenzyl)-4-(2-{[2-methoxy-4-(morpholin-4-ylcarbonyl)phenyl]amino}[,2]-triazolo[1,5-a]pyridin-6-yl)benzamid], at most 1 nM. For `CCOc1cc(C(=O)N2CCOCC2)ccc1Nc1nc2ccc(-c3ccc(C(=O)NCc4ccc(F)cc4)cc3)cn2n1` [Example 04.02, 4-(2-{[2-Ethoxy-4-(morpholin-4-ylcarbonyl)phenyl]amino}[,2]-triazolo[1,5-a]pyridin-6-yl)-N-(4-fluorbenzyl)benzamid] the value was at most 1 nM; for `COc1cc(N2CCOC2=O)ccc1Nc1nc2ccc(-c3ccc(C(=O)NCc4ccc(F)cc4)cc3)cn2n1` [Example 04.03, N-(4-fluorobenzyl)-4-(2-{[2-methoxy-4-(2-oxo-1,3-oxazolidin-3-yl)phenyl]amino}[,2]-triazolo[1,5-a]pyridin-6-yl)benzamide], at most 1 nM.
